From patent US9617602B2, “Methods and compositions for determining resistance to androgen receptor therapy” (Aragon Pharmaceuticals, Inc., priority 2012, dated 2017)

Tests used:
LNCaP/AR-Luc cells = test: Endogenous gene transcriptional assay (real-time PCR of androgen responsive genes); type: cell-based, human; settings: 1 nM R1881 or 30 μM compound, vehicle=1.00
Description: (§1) Total RNA was isolated using the Aurum™ total RNA isolation kit (BIO-RAD, Hercules, Calif.). RNA (1 μg) was reverse transcribed using the iScript cDNA synthesis kit (BIO-RAD, Hercules, Calif.) to produce cDNA. Real-time PCR was performed using the Applied Biosystems 7900HT instrument and SYBR Green PCR Master Mix (Applied Biosystems, Foster City, Calif.). PCR reactions were performed in 6 μL according to the manufacturer's protocol and a thermocycle protocol of 95° C. for 10 minutes followed by 40 cycles of 95° C. for 15 seconds and 58° C. for 1 minute. Androgen responsive gene (PSA, SLUG, TMPRSS2, STEAP4, FKBP5, ORM1, NOV, FASN, NKX3.1, AMIGO2, BDNF, CAMK2N1, HPGD, NCAPD3, PLD1) expression was normalized to GAPDH expression and expressed relative to vehicle treatment of the parental cell line.
(§2) Gene expression was normalized to GAPDH as described above.

LNCaP/AR(cs) cells = test: as above; type: cell-based, human
Description: as §1, §2

Molecule CNC(=O)c1ccc(N2C(=S)N(c3ccc(C#N)c(C(F)(F)F)c3)C(=O)C2(C)C)cc1F [Enzalutamide, enzalutamide] has an AMIGO2 gene expression (LNCaP/AR-Luc cells) of 1.44, a BDNF gene expression (LNCaP/AR-Luc cells) of 1.08 and a CAM2KN1 gene expression (LNCaP/AR-Luc cells) of 1.51. For the same molecule, the FASN gene expression (LNCaP/AR-Luc cells) was 1.40, the FKBP5 gene expression (LNCaP/AR-Luc cells) was 1.46 and the HPGD gene expression (LNCaP/AR-Luc cells) was 2.51. The NCAPD3 gene expression (LNCaP/AR-Luc cells) was 1.33, the NKX3.1 gene expression (LNCaP/AR-Luc cells) was 1.68 and the ORM1 gene expression (LNCaP/AR-Luc cells) was 1.39. It also gave a PLD1 gene expression (LNCaP/AR-Luc cells) of 1.33, a PSA gene expression (LNCaP/AR-Luc cells) of 0.44 and an SLUG gene expression (LNCaP/AR-Luc cells) of 2.73. The STEAP4 gene expression (LNCaP/AR-Luc cells) was 1.23, the TMPRSS2 gene expression (LNCaP/AR-Luc cells) was 1.35 and the “AMIGO2 expression, antagonist transcription” value (“AMIGO2 expression” below) (LNCaP/AR(cs) cells; +1 nM R1881, 0.3 μM) was 0.49. The “BDNF expression, antagonist transcription” value (shortened to “BDNF expression”) (LNCaP/AR(cs) cells; +1 nM R1881, 0.3 μM) was 0.61, the “CAM2KN1 expression, antagonist transcription” value (shortened to “CAM2KN1 expression”) (LNCaP/AR(cs) cells; +1 nM R1881, 0.3 μM) was 0.04 and the “FASN expression, antagonist transcription” value (from here on “FASN expression”) (LNCaP/AR(cs) cells; +1 nM R1881, 0.3 μM) was 1.30. The “FKBP5 expression, antagonist transcription” value (from here on “FKBP5 expression”) (LNCaP/AR(cs) cells; +1 nM R1881, 0.3 μM) was 23.51, the “HPGD expression, antagonist transcription” value (shortened to “HPGD expression”) (LNCaP/AR(cs) cells; +1 nM R1881, 0.3 μM) was 99.16 and the “NCAPD3 expression, antagonist transcription” value (from here on “NCAPD3 expression”) (LNCaP/AR(cs) cells; +1 nM R1881, 0.3 μM) was 23.74. The “NKX3.1 expression, antagonist transcription” value (from here on “NKX3.1 expression”) (LNCaP/AR(cs) cells; +1 nM R1881, 0.3 μM) was 7.70, the “NOV expression, antagonist transcription” value (LNCaP/AR(cs) cells; +1 nM R1881, 0.3 μM) was 0.11 and the “PLD1 expression, antagonist transcription” value (“PLD1 expression” below) (LNCaP/AR(cs) cells; +1 nM R1881, 0.3 μM) was 0.02. For the same molecule, the “PSA expression, antagonist transcription” value (LNCaP/AR(cs) cells; +1 nM R1881, 0.3 μM) was 22.76, the “SLUG expression, antagonist transcription” value (“SLUG expression” for short) (LNCaP/AR(cs) cells; +1 nM R1881, 0.3 μM) was 50.08 and the “STEAP4 expression, antagonist transcription” value (from here on “STEAP4 expression”) (LNCaP/AR(cs) cells; +1 nM R1881, 0.3 μM) was 585.81. For the same molecule, the “TMPRSS2 expression, antagonist transcription” value (shortened to “TMPRSS2 expression”) (LNCaP/AR(cs) cells; +1 nM R1881, 0.3 μM) was 19.88, the “AMIGO2 expression” value (LNCaP/AR(cs) cells; +1 nM R1881, 1 μM) was 0.19 and the “BDNF expression” value (LNCaP/AR(cs) cells; +1 nM R1881, 1 μM) was 0.28. For the same molecule, the “CAM2KN1 expression” value (LNCaP/AR(cs) cells; +1 nM R1881, 1 μM) was 0.06, the “FASN expression” value (LNCaP/AR(cs) cells; +1 nM R1881, 1 μM) was 0.42 and the “FKBP5 expression” value (LNCaP/AR(cs) cells; +1 nM R1881, 1 μM) was 5.64. For the same molecule, the “HPGD expression” value (LNCaP/AR(cs) cells; +1 nM R1881, 1 μM) was 16.30, the “NCAPD3 expression” value (LNCaP/AR(cs) cells; +1 nM R1881, 1 μM) was 4.35 and the “NKX3.1 expression” value (LNCaP/AR(cs) cells; +1 nM R1881, 1 μM) was 3.77. For the same molecule, the “NOV expression, antagonist transcription” value (LNCaP/AR(cs) cells; +1 nM R1881, 1 μM) was 0.14, the “PLD1 expression” value (LNCaP/AR(cs) cells; +1 nM R1881, 1 μM) was 0.02 and the “PSA expression, antagonist transcription” value (LNCaP/AR(cs) cells; +1 nM R1881, 1 μM) was 8.82. The “SLUG expression” value (LNCaP/AR(cs) cells; +1 nM R1881, 1 μM) was 10.20, the “STEAP4 expression” value (LNCaP/AR(cs) cells; +1 nM R1881, 1 μM) was 109.37 and the “TMPRSS2 expression” value (LNCaP/AR(cs) cells; +1 nM R1881, 1 μM) was 7.72. For the same molecule, the “AMIGO2 expression” value (LNCaP/AR(cs) cells; +1 nM R1881, 3 μM) was 0.48, the “BDNF expression” value (LNCaP/AR(cs) cells; +1 nM R1881, 3 μM) was 0.63 and the “CAM2KN1 expression” value (LNCaP/AR(cs) cells; +1 nM R1881, 3 μM) was 0.27. For the same molecule, the “FASN expression” value (LNCaP/AR(cs) cells; +1 nM R1881, 3 μM) was 0.71, the “FKBP5 expression” value (LNCaP/AR(cs) cells; +1 nM R1881, 3 μM) was 3.32 and the “HPGD expression” value (LNCaP/AR(cs) cells; +1 nM R1881, 3 μM) was 13.19. The “NCAPD3 expression” value (LNCaP/AR(cs) cells; +1 nM R1881, 3 μM) was 3.14, the “NKX3.1 expression” value (LNCaP/AR(cs) cells; +1 nM R1881, 3 μM) was 6.72 and the “NOV expression, antagonist transcription” value (LNCaP/AR(cs) cells; +1 nM R1881, 3 μM) was 0.61. For the same molecule, the “ORM1 expression, antagonist transcription” value (“ORM1 expression” for short) (LNCaP/AR(cs) cells; +1 nM R1881, 3 μM) was 257.85, the “PLD1 expression” value (LNCaP/AR(cs) cells; +1 nM R1881, 3 μM) was 0.13 and the “PSA expression, antagonist transcription” value (LNCaP/AR(cs) cells; +1 nM R1881, 3 μM) was 11.75. The “SLUG expression” value (LNCaP/AR(cs) cells; +1 nM R1881, 3 μM) was 10.56, the “STEAP4 expression” value (LNCaP/AR(cs) cells; +1 nM R1881, 3 μM) was 74.44 and the “TMPRSS2 expression” value (LNCaP/AR(cs) cells; +1 nM R1881, 3 μM) was 10.51. For the same molecule, the “AMIGO2 expression” value (LNCaP/AR(cs) cells; +1 nM R1881, 10 μM) was 0.78, the “BDNF expression” value (LNCaP/AR(cs) cells; +1 nM R1881, 10 μM) was 0.99 and the “CAM2KN1 expression” value (LNCaP/AR(cs) cells; +1 nM R1881, 10 μM) was 0.50. The “FASN expression” value (LNCaP/AR(cs) cells; +1 nM R1881, 10 μM) was 0.46, the “FKBP5 expression” value (LNCaP/AR(cs) cells; +1 nM R1881, 10 μM) was 1.41 and the “NKX3.1 expression” value (LNCaP/AR(cs) cells; +1 nM R1881, 10 μM) was 4.70. The “NOV expression, antagonist transcription” value (LNCaP/AR(cs) cells; +1 nM R1881, 10 μM) was 1.00, the “ORM1 expression” value (LNCaP/AR(cs) cells; +1 nM R1881, 10 μM) was 43.91 and the “PLD1 expression” value (LNCaP/AR(cs) cells; +1 nM R1881, 10 μM) was 0.42. For the same molecule, the “PSA expression, antagonist transcription” value (LNCaP/AR(cs) cells; +1 nM R1881, 10 μM) was 6.59, the “SLUG expression” value (LNCaP/AR(cs) cells; +1 nM R1881, 10 μM) was 5.26 and the “STEAP4 expression” value (LNCaP/AR(cs) cells; +1 nM R1881, 10 μM) was 13.61. The “TMPRSS2 expression” value (LNCaP/AR(cs) cells; +1 nM R1881, 10 μM) was 3.58, the “AMIGO2 expression” value (LNCaP/AR(cs) cells; +1 nM R1881, 30 μM) was 0.92 and the “BDNF expression” value (LNCaP/AR(cs) cells; +1 nM R1881, 30 μM) was 1.12. The “CAM2KN1 expression” value (LNCaP/AR(cs) cells; +1 nM R1881, 30 μM) was 0.56, the “FASN expression” value (LNCaP/AR(cs) cells; +1 nM R1881, 30 μM) was 0.59 and the “FKBP5 expression” value (LNCaP/AR(cs) cells; +1 nM R1881, 30 μM) was 1.50. The “HPGD expression” value (LNCaP/AR(cs) cells; +1 nM R1881, 30 μM) was 4.25, the “NKX3.1 expression” value (LNCaP/AR(cs) cells; +1 nM R1881, 30 μM) was 5.03 and the “NOV expression, antagonist transcription” value (LNCaP/AR(cs) cells; +1 nM R1881, 30 μM) was 0.92. For the same molecule, the “ORM1 expression” value (LNCaP/AR(cs) cells; +1 nM R1881, 30 μM) was 22.70, the “PLD1 expression” value (LNCaP/AR(cs) cells; +1 nM R1881, 30 μM) was 0.54 and the “PSA expression, antagonist transcription” value (LNCaP/AR(cs) cells; +1 nM R1881, 30 μM) was 5.65. The “SLUG expression” value (LNCaP/AR(cs) cells; +1 nM R1881, 30 μM) was 5.22.
